The values below come from patent publication US20050037478A1, “Crystal structure of glutamate racemase (MurI)” (priority 2002, published 2005).

For data set [1], the target named is recombinant H. pylori MurI (Helicobacter pylori, UniProt Q9ZLT0).
Source text: Kinetic constant for recombinant MurI were estimated by assaying its activity at various concentrations of protein and D-glutamic acid as described above.
Data set [2] addresses T1, H. pylori MurI A75T mutant (Helicobacter pylori, UniProt Q9ZLT0, A75T).
T1 sequence (Q9ZLT0 1-255 A75T): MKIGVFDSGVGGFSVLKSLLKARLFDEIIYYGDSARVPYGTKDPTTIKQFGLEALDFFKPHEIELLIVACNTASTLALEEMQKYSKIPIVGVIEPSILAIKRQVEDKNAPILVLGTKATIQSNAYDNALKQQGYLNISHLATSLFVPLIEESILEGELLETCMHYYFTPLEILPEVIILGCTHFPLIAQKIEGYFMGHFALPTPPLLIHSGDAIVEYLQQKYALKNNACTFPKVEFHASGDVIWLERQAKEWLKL
Conditions: reverse direction.

Data set [3] has as its system MurI resistance mutant proteins (A75T or E151K). The experiment in a line: Kinetic analysis of MurI resistance mutant proteins, forward direction (L-Glu→D-Glu). Format: biochemical, H. pylori.
Procedure: In this assay, the conversion of L-Glutamate to D-Glutamate was monitored spectrophotometrically through a two enzyme coupling system wherein, the production of D-glutamate is coupled to the incorporation of D-Glutamate into UDP-MurNAc-Ala-D-Glu by recombinant E. faecalis MurD, with concomitant hydrolysis of ATP to ADP and inorganic phosphate. […] Initial rates of reaction were determined by following the increase of absorbance at 360 nm in a 100 μL reaction volume containing 85 μL of reaction buffer (58 mM Tris, pH=8.0, 23.5 mM ammonium acetate, 23.5 mM magnesium acetate, 2.94 mM dithiothreitol, 2.94 mM adenosine triphosphate, 0.47 mM UDP-MurNAc-Ala, 0.47 mM MESG, 1.17 units./mL PNP, 16 μg/mL E. faecalis MurD, and 30 nM MurI) and 15 μL of L-Glutamate stock (0.05-10 mM). The increase in optical density at 360 nm was measured continuously in at 96 well microtitre plate in a Microplate Spectrophotometer System (Molecular Devices, SpectraMAX 250).
Data set [4] deals with the molecule itself. In words: X-ray crystallography, homodimer.
Data set [5] concerns the molecule itself. In words: X-ray crystallography (molecular replacement), homodimer.

In general, Km refers to the substrate concentration at which the rate is half of its maximum. On to `N[C@H](CCC(=O)O)C(=O)O` [D-glutamate], for which the substrate inhibition result in data set [1] was “Severe substrate inhibition”. Also, in data set [1] (read-out: Km for D-glutamate), the Km came to 100 µM. Also, in data set [2] (mutant enzyme vs wild-type), the “shift of inhibition constant relative to the wild-type enzyme” value is greater than 120 fold. The “substrate inhibition by D-glutamate” value in data set [2] (mutant enzyme) is “exhibits substrate inhibition”.
Regarding `N[C@@H](CCC(=O)O)C(=O)O` [L-Glu, L-glutamate], in data set [3], the “elevation of KM for L-Glu relative to the native enzyme” value is 10 fold and the “substrate inhibition by L-Glu” value is listed as “no substrate inhibition”.

B1: Helicobacter pylori glutamate racemase (MurI), monomer chain of the homodimer (enzyme)
chain: MKIGVFDSGVGGFSVLKSLLKARLFDEIIYYGDSARVPYGTKDPTTIKQFGLEALDFFKPHEIELLIVACNTASALALEEMQKYSKIPIVGVIEPSILAIKRQVEDKNAPILVLGTKATIQSNAYDNALKQQGYLNISHLATSLFVPLIEESILEGELLETCMHYYFTPLEILPEVIILGCTHFPLIAQKIEGYFMGHFALPTPPLLIHSGDAIVEYLQQKYALKNNACTFPKVEFHASGDVIWLERQAKEWLKL
notes: also called H. pylori MurI; H. pylori glutamate racemase
For B1, the binding result in data set [4] is “binds”.

B2: Enterococcus faecalis glutamate racemase (MurI), monomer chain of the homodimer (enzyme)
chain: MSNQEAIGLIDSGVGGLTVLKEALKQLPNERLIYLGDTARCPYGPRPAEQVVQFTWEMADFLLKKRIKMLVIACNTATAVALEEIKAALPIPVVGVILPGARAAVKVTKNNKIGVIGTLGTIKSASYEIAIKSKAPAIEVTSLACPKFVPIVESNQYRSSVAKKIVAETLQALQLKGLDTLILGCTHYPLLRPVIQNVMGSHVTLIDSGAETVGEVSMLLDYFDIAHTPEAPTQPHEFYTTGSAKMFEEIASSWLGIENLKAQQIHLGGNEND
notes: also called E. faecalis MurI; E. faecalis glutamate racemase
Regarding B2, the binding result in data set [4] is given as “binds”.

B3: Enterococcus faecium glutamate racemase (MurI), monomer chain of the homodimer (enzyme)
chain: MIRLTDNRPIGFIDSGVGGLTVVKEALKQLPNENILFVGDTARCPYGPRPAEQVIQYTWEMTDYLVEQGIKMLVIACNTATAVALEEIKAALSIPVIGVILPGTRAAVKKTQNKQVGIIGTIGTVKSQAYEKALKEKVPELTVTSLACPKFVSVVESNEYHSSVAKKIVAETLAPLTTKKIDTLILGCTHYPLLRPIIQNVMGENVQLIDSGAETVGEVSMLLDYFNLSNSPQNGRTLCQFYTTGSAKLFEEIAEDWLGIGHLNVEHIELGGK
notes: also called E. faecium MurI; EF2
In the case of B3, the binding result in data set [5] is “binds”.
